The values that follow come from patent US11292760B2, “Therapeutic acrylates as enhanced medical adhesives” (Carnegie Mellon University, priority 2016, dated 2022).

Data set [1] in a line: Time-lapse 1H NMR of hydrolysis after exposure to D2O. The data set is classed as physicochemical. As to conditions: monomer dissolved in CDCl3, 1H NMR. As to the method: […] One drop of deuterium oxide (D2O, EMD Millipore) was then added and the sample inverted gently once to mix. Spectra were recorded immediately, then periodically for the next two hours.
Data set [2] is described as follows: Solubility of TMA monomer in adhesive monomers. The data set is classed as physicochemical.

As to `C=C(C)C(=O)OC(=O)C(C)c1ccc(CC(C)C)cc1` (stereo not shown) [IbuMA, Ibuprofen Methacrylic Anhydride], the “time course of anhydride bond hydrolysis after exposure to D2O” value in data set [1] came out at 90 min. In data set [2] (commercial formulation), the “solubility in methyl methacrylate monomer” value was “soluble” and the “solubility in n-butyl cyanoacrylate” value is given as “soluble”.
On to `C=C(C)C(=O)Nc1ccc(C(=O)OCC)cc1` [BenzMA, Benzocaine Methacrylamide], for which the “solubility in BCA monomer” value in data set [2] (25% TMA by weight in the adhesive, preliminary formulation tests) was “excellent solubility”.
